Test results reported in paper PMC10983001, “Development of Cytotoxic GW7604-Zeise’s Salt Conjugates as Multitarget Compounds with Selectivity for Estrogen Receptor- Positive Tumor Cells” (Journal of Medicinal Chemistry, 2024).

What was measured:
Assay type in all cases: cell-based, human
MCF-7 cells [1] = test: MTT assay of metabolic activity, MCF-7; conditions: 72 h, MTT; read-out: IC50 MCF-7
Protocol: (§1) The GW7604-Alk-PtCl3 complexes (with exclusion of GW7604-Prop-PtCl3) were investigated for cytotoxic effects in SKBr3 (ER-negative, COX-2-positive, Figure 6), MCF-7 (ERα-positive, COX-negative, Figure 6), and noncancerous TSA-201 (human embryonal kidney) cells at concentrations of 10–30 μM using an established MTT (3-(4,5-dimethylthiazol-2-yl)-2,5-diphenyltetrazolium bromide) assay.[60],[69]
(§2) After incubation for 72 h, the amounts of surviving, metabolically active cells were quantified based on their ability to transform the water-soluble yellow dye MTT to a purple formazan, which can be analyzed by UV–vis spectroscopy.
(§3) The exponentially growing cells were seeded at a density of 1750 (MCF-7), 2000 (SKBr3), and 1250 (TSA-201) cells/well into clear flat-bottom 96-well plates in triplicate. Following 24 h of incubation at 37 °C in a humidified atmosphere (5% CO2/95% air), the compounds [freshly prepared stock solutions in DMF, diluted with DMEM to the desired concentration (final DMF concentration of 0.1% (v/v))] were added to reach the indicated concentrations. After another 72 h of incubation, the cellular metabolic activity was measured employing an MTT assay. By adding predissolved MTT reagent in PBS at a final concentration of 0.5 mg/mL, the metabolic activity can be determined via an enzymatic conversion to a purple formazan salt. After 3 h, the medium was aspirated, and 200 μL of DMSO was added to dissolve the formed formazan crystals. The absorbance was measured at 570 and 690 nm (turbidity assessment) using an EnSpire plate reader (PerkinElmer, Waltham, MA, USA). Solvent-treated cells without a compound served as the positive control. Metabolic activity was calculated by the following equation [drawing 1]

TSA-201 cells = test: MTT assay of metabolic activity, noncancerous TSA-201; conditions: 72 h
Protocol: as §1, §2, §3

SKBr3 cells = test: Cellular uptake (platinum by HR-CS-AAS), SKBr3; conditions: 8 h
Protocol: In order to reach the DNA, the complexes must first pass through the cell membrane and penetrate into the nuclei. Therefore, the cellular uptake kinetics of GW7604-Alk-PtCl3 complexes were studied using the example of GW7604-Pent-PtCl3. This complex and Cisplatin, respectively, were incubated at a concentration of 20 μM with MCF-7 or SKBr3 cells. After various time points [i.e., 0 (3 min), 0.5, 1, 2, 4, and 8 h], cell pellets were prepared, and the platinum content was quantified by high-resolution continuum source atomic absorption spectrometry (HR-CS-AAS).[52]
After thawing of the cell/nuclei pellets, they were resuspended in ultrapure water (Siemens LaboStar, Günzburg, Germany; 300 μL) and lyzed with a sonotrode (Bandelin Sonoplus, Berlin, Germany; parameters 20 s, 9 cycles, 80% power). Graphite furnace (GF) AAS was used to quantify the lysates concerning their content of platinum (λ = 265.9450 nm). For this purpose, a contrAA 700 High-Resolution-Continous Source AAS (Analytik Jena, Jena, Germany) was employed, while atomization took place by electrothermal heating of graphite tubes with an inserted platform (Analytik Jena, Jena, Germany). A time–temperature program reported in the literature[25] was followed with minor adjustments. The liquid samples kept in 0.5 mL polystyrene vials (Gesellschaft für Analysentechnik, Salzwedel, Germany) were injected directly into the pyrolytically coated tubes using an MPE 60 autosampler (Analytik Jena, Jena, Germany). Throughout the measurements, argon (Alphagaz 1, 99.999%, Air Liquide, Düsseldorf, Germany) served as the purge and protective gas. The spectrometer was monitored with the ASpect CS software, version 2.3.1.0 (Analytik Jena, Jena, Germany). For all runs, the mean integrated absorbance was determined after three injections of each standard or sample. Calibration was performed by an appropriate dilution of a solution of Cisplatin (Sigma-Aldrich, Taufkirchen, Germany) obtaining five standards (2–10 μg/L, R^2 ≥ 0.982). Each cell/nuclei lysate was quantified concerning its protein content following the method of Bradford[71] in order to express the uptake as the amount of compound (pmol) in the lysate relative to its protein mass (mg). Therefore, solutions of Albumin fraction V (Carl Roth, Karlsruhe, Germany) diluted with ultrapure water were adduced for the calibration (six standards, 50–300 μg/mL, R^2 ≥ 0.996). […] All standards and lysates were measured in duplicate. After incubating for 5 min at rt, the absorbance (λ = 595 nm) was read on a microplate reader (Tecan Safire 2, Männedorf, Switzerland). […]

MCF-7 cells [2] = test: Comet assay; conditions: MCF-7, 20 μM, 48 h
Protocol: The comet assay (Figure 10), however, documents different consequences of DNA binding. […] The picture (Figure 10C) is very similar to that of the solvent control (Figure 10A).
MCF-7 cells were seeded at a density of 1.0 × 10^6 cells into a 25 cm^2 flask, followed by 24 h of incubation in a humidified atmosphere (5% CO2/95% air) at 37 °C. […] Cells were incubated with the compounds for 48 h. The assay was performed according to the manufacturer’s protocol (Comet assay kit, Abcam, Cambridge, UK). Briefly, after lysis and application to the microscopy slides, electrophoresis was run in an alkaline buffer for 20 min at 2 V/cm. Subsequently, slides were washed with pure deionized water and EtOH/water [7/3 (v/v)], and stained with Vista Green DNA Dye. Visualization was carried out by real-time live confocal microscopy using an inverted microscope (Zeiss Observer Z1) in arrangement with a spinning disc confocal system (UltraVIEW VoX).

## CCC(=C(c1ccc(O)cc1)c1ccc(C=CC(=O)OCCC[CH]2[CH2][Pt-]2([Cl])([Cl])[Cl])cc1)c1ccccc1.[K+] (mixture of isomers) [GW7604-Pent-PtCl3, Potassium trichlorido[η^2-(pent-4-en-1-yl (E)-3-(4-((E/Z)-1-(4-hydroxyphenyl)-2-phenylbut-1-en-1-yl)phenyl)acrylate)]platinate(II)]
MCF-7 cells [1]
  IC50: 19.6 µM
TSA-201 cells; MTT, read-out: IC50 TSA-210
  IC50: > 30 µM
TSA-201 cells; TSA-201, 30 μM
  decrease of cell viability: about 20%
SKBr3 cells; 20 μM
  platinum amount in SKBr3 relative to MCF-7 cells: about one-twelfth
SKBr3 cells; SKBr3, 20 μM
  intracellular platinum amount: 67 pmol/mg
MCF-7 cells [2]
  comet tails (DNA cross-links): did not show this effect
